Experiments:
[1] = test system: SAGPY (Arrowhead (Pygmaea)); assay: Postemergence weed control under flooded paddy conditions; type: in vivo, Sagittaria pygmaea; conditions: postemergence weeds, 3-4 weeks after treatment
Outline: (§1)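 Herbicidal effect is judged by eye on a 0–9 scale versus control, 3–4 weeks after dosing. Dosing is into flood water kept 1.5–3 cm over the soil, at about 0.0313–0.500 kg/ha in aqueous/acetone 50/50 v/v, on 3–5 cm weeds and 1.5–2.5-leaf rice seedlings.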

[2] = test system: ECHORC (Watergrass (Calif.)); assay: Preemergence weed control under flooded paddy conditions; type: in vivo, Echinochloa oryzoides; conditions: rated 3-4 weeks after treatment
Outline: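 Ratings on a 0-9 visual scale cover stand, vigor, malformation, size, chlorosis and overall appearance relative to a control, taken three to four weeks post-treatment. Application was into flood water over freshly sown silt loam at roughly 0.0313 to 0.500 kg/ha.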

CYPSE (Flatsedge) = assay: as above; type: in vivo, Cyperus serotinus; conditions: rated 3-4 weeks after treatment
Outline: (§2)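 Silt loam, seeds in top 0.5 cm; flood held 1.5-3 cm; test cpd as acetone/water 50/50 into flood water, ~0.0313-0.500 kg/ha a.i.; greenhouse 3-4 wk; visual 0-9 score vs control.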

[3] = test system: SAGPY (Arrowhead (Pygmaea)); assay: as above; type: in vivo, Sagittaria pygmaea; conditions: rated 3-4 weeks after treatment
Outline: as §2

[4] = test system: TRZAWR (Wheat, Winter, cv Riband); assay: Postemergence herbicidal evaluation; type: in vivo, Triticum aestivum
Outline: (§3)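 First, seedlings were raised for around two weeks. Next, test material in 50/50 acetone/water containing 0.5% TWEEN 20 was sprayed through a nozzle at 40 psi, equivalent to about 0.0156–0.500 kg/ha. Finally, after 4–5 weeks in the greenhouse, plants were rated 0–9.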

GALAP (Galium) [5] = assay: Preemergence herbicidal evaluation; type: in vivo, Galium aparine; conditions: rated 4-5 weeks after treatment
Outline: (§4)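 Each species is sown separately in potting soil over roughly an inch of soil before any emergence. The soil surface then receives an aqueous acetone spray delivering about 0.0156 to 0.500 kg/ha of compound. After four to five weeks, injury is scored from 0 to 9 relative to a control.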

[6] = test system: ECHORC (Watergrass (Calif.)); assay: Postemergence weed control under flooded paddy conditions; type: in vivo, Echinochloa oryzoides; conditions: postemergence weeds, 3-4 weeks after treatment
Outline: as §1

MOOVA (Monochoria) = assay: Preemergence weed control under flooded paddy conditions; type: in vivo, Monochoria vaginalis; conditions: rated 3-4 weeks after treatment
Outline: as §2

SETVI (Foxtail, Green) = assay: Preemergence herbicidal evaluation; type: in vivo, Setaria viridis; conditions: rated 4-5 weeks after treatment
Outline: as §4

AMBEL (Ragweed, Common) = assay: Postemergence herbicidal evaluation; type: in vivo, Ambrosia artemisifolia
Outline: as §3

GALAP (Galium) [7] = assay: Postemergence herbicidal evaluation; type: in vivo, Galium aparine
Outline: as §3

[8] = test system: GLXMAW (Soybean, Williams); assay: Postemergence herbicidal evaluation; type: in vivo, Glycine max, (L.) Merr. cv Williams
Outline: as §3

CASOB (Sicklepod) = assay: Postemergence herbicidal evaluation; type: in vivo, Cassia obtusifolia
Outline: as §3

ORYSAT (Rice, Tebonnet) = assay: Preemergence herbicidal evaluation; type: in vivo, Oryza sativa, (L.) Tebonnet; conditions: rated 4-5 weeks after treatment
Outline: as §4

SMILES: Cn1c(C(F)(F)F)cc(=O)n(-c2cc(N=C3SCC(=O)N3CCC(=O)O)c(Cl)cc2F)c1=O [Compound 30, 2-{{2-Chloro-5-[3,6-dihydro-3-methyl-2,6-dioxo-4-(trifluoromethyl)-1(2H)-pyrimidinyl]-4-fluorophenyl}imino}-4-oxo-3-thiazolidinepropionic acid]
- Herbicidal rating SAGPY ([1]; rate 0.1250 kg/ha): 0.0
- Herbicidal rating SAGPY ([1]; rate 0.2500 kg/ha): 2.0
- Herbicidal rating ECHORC ([2]; 0.1250 kg/ha): 0.0
- Herbicidal rating ECHORC ([2]; 0.2500 kg/ha): 0.0
- Herbicidal rating CYPSE (CYPSE (Flatsedge); 0.1250 kg/ha): 0.0
- Herbicidal rating CYPSE (CYPSE (Flatsedge); 0.2500 kg/ha): 0.0
- Herbicidal rating SAGPY ([3]; 0.1250 kg/ha): 0.0
- Herbicidal rating SAGPY ([3]; 0.2500 kg/ha): 2.0
- Postemergence herbicidal rating TRZAWR ([4]; Rate 0.0158 kg/ha): 4.0
- Postemergence herbicidal rating TRZAWR ([4]; Rate 0.0315 kg/ha): 4.5
- Postemergence herbicidal rating TRZAWR ([4]; Rate 0.0630 kg/ha): 5.5
- Preemergence herbicidal rating GALAP (GALAP (Galium) [5]; rate 0.0313 kg/ha): 0.0
- Preemergence herbicidal rating GALAP (GALAP (Galium) [5]; rate 0.0625 kg/ha): 0.0
- Preemergence herbicidal rating GALAP (GALAP (Galium) [5]; rate 0.1250 kg/ha): 1.0
- Preemergence herbicidal rating GALAP (GALAP (Galium) [5]; rate 0.2500 kg/ha): 9.0
- Herbicidal rating ECHORC ([6]; rate 0.1250 kg/ha): 0.0
- Herbicidal rating ECHORC ([6]; rate 0.2500 kg/ha): 0.0
- Herbicidal rating MOOVA (MOOVA (Monochoria); 0.1250 kg/ha): 1.5
- Herbicidal rating MOOVA (MOOVA (Monochoria); 0.2500 kg/ha): 4.5
- Preemergence herbicidal rating SETVI (SETVI (Foxtail, Green); rate 0.0313 kg/ha): 0.0
- Preemergence herbicidal rating SETVI (SETVI (Foxtail, Green); rate 0.0625 kg/ha): 0.0
- Preemergence herbicidal rating SETVI (SETVI (Foxtail, Green); rate 0.1250 kg/ha): 7.0
- Preemergence herbicidal rating SETVI (SETVI (Foxtail, Green); rate 0.2500 kg/ha): 9.0
- Postemergence herbicidal rating AMBEL (AMBEL (Ragweed, Common); Rate 0.0158 kg/ha): 0.0
- Postemergence herbicidal rating AMBEL (AMBEL (Ragweed, Common); Rate 0.0315 kg/ha): 0.0
- Postemergence herbicidal rating AMBEL (AMBEL (Ragweed, Common); Rate 0.0630 kg/ha): 1.0
- Postemergence herbicidal rating GALAP (GALAP (Galium) [7]; Rate 0.0158 kg/ha): 0.0
- Postemergence herbicidal rating GALAP (GALAP (Galium) [7]; Rate 0.0315 kg/ha): 0.0
- Postemergence herbicidal rating GALAP (GALAP (Galium) [7]; Rate 0.0630 kg/ha): 0.0
- Postemergence herbicidal rating GLXMAW ([8]; Rate 0.0158 kg/ha): 6.5
- Postemergence herbicidal rating GLXMAW ([8]; Rate 0.0315 kg/ha): 6.5
- Postemergence herbicidal rating GLXMAW ([8]; Rate 0.0630 kg/ha): 6.5
- Postemergence herbicidal rating CASOB (CASOB (Sicklepod); Rate 0.0158 kg/ha): 0.0
- Postemergence herbicidal rating CASOB (CASOB (Sicklepod); Rate 0.0315 kg/ha): 0.0
- Postemergence herbicidal rating CASOB (CASOB (Sicklepod); Rate 0.0630 kg/ha): 0.0
- Preemergence herbicidal rating ORYSAT (ORYSAT (Rice, Tebonnet); rate 0.0313 kg/ha): 1.0
- Preemergence herbicidal rating ORYSAT (ORYSAT (Rice, Tebonnet); rate 0.0625 kg/ha): 1.0
- Preemergence herbicidal rating ORYSAT (ORYSAT (Rice, Tebonnet); rate 0.1250 kg/ha): 1.0
- Preemergence herbicidal rating ORYSAT (ORYSAT (Rice, Tebonnet); rate 0.2500 kg/ha): 4.0

From patent US20020137929A1, “1 - (3-heterocyclylphenyl) isothiourea, -isourea, -guanidine and -amidine herbicidal agents” (Intellectual Property Department, BASF Aktiengesellschaft, priority 1998, published 2002)
